Assay results: patent publication US20250120970A1, “PHARMACEUTICAL COMPOSITION INCLUDING PHTHALAZINONE DERIVATIVE FOR CO-ADMINISTRATION WITH ANTICANCER DRUG” (priority 2022, published 2025)
Structures can show the parent of a compound that is named as a salt.

What was measured:
SNU-668 [1] = experiment: MTT assay, irinotecan with or without hydrochloride compound of Formula 1; assay type: cell-based; settings: Homo sapiens, SNU668, 120 h, 5 days, irinotecan alone or with 1 μM hydrochloride compound of Formula 1
[2] = tested on: five human-derived gastric cancer cell lines (AGS, SNU-668, SNU-216, SNU-484, and SNU-638); experiment: MTT assay, irinotecan experiment, summary over the five cell lines; settings: 5 days, irinotecan with or without 1 μM hydrochloride compound of Formula 1
AGS [3] = experiment: MTT assay, irinotecan with or without hydrochloride compound of Formula 1; assay type: cell-based; settings: Homo sapiens, 120 h, 5 days, irinotecan alone or with 1 μM hydrochloride compound of Formula 1
SNU-484 [4] = experiment: as above; assay type: cell-based; settings: Homo sapiens, 120 h, 5 days, irinotecan alone or with 1 μM hydrochloride compound of Formula 1
SNU-216 = experiment: as above; assay type: cell-based; settings: Homo sapiens, 120 h, 5 days, irinotecan alone or with 1 μM hydrochloride compound of Formula 1
SNU-638 [5] = experiment: as above; assay type: cell-based; settings: Homo sapiens, 120 h, 5 days, irinotecan alone or with 1 μM hydrochloride compound of Formula 1
SNU-638 [6] = experiment: MTT assay, oxaliplatin with or without hydrochloride compound of Formula 1; assay type: cell-based, human; settings: 5 days, oxaliplatin alone or with 1 μM hydrochloride compound of Formula 1
Source text: (§1) Oxaliplatin (M.W. 397.29) was obtained from Sigma Aldrich.

AGS [7] = experiment: as above; assay type: cell-based, human; settings: 5 days, oxaliplatin alone or with 1 μM hydrochloride compound of Formula 1
Source text: as §1

SNU-484 [8] = experiment: as above; assay type: cell-based, human; settings: 5 days, oxaliplatin alone or with 1 μM hydrochloride compound of Formula 1
Source text: as §1

SNU-668 [9] = experiment: as above; assay type: cell-based, human; settings: 5 days, oxaliplatin alone or with 1 μM hydrochloride compound of Formula 1
Source text: as §1

[10] = tested on: five human-derived gastric cancer cell lines (AGS, SNU-668, SNU-216, SNU-484, and SNU-638); experiment: MTT assay, oxaliplatin experiment, summary over the cell lines; assay type: cell-based; settings: 5 days, oxaliplatin with or without 1 μM hydrochloride compound of Formula 1
Source text: as §1

[11] = tested on: MKN45 human gastric cancer xenograft; experiment: subcutaneous MKN45 human gastric cancer xenograft model, tumor volume; settings: for Tumor volume (Mean ± SEM): Formula 1 HCl 2 mg/kg p.o. QD, irinotecan 5 mg/kg i.v. QW

CCc1c2c(nc3ccc(OC(=O)N4CCC(N5CCCCC5)CC4)cc13)-c1cc3c(c(=O)n1C2)COC(=O)[C@]3(O)CC [Comparative Example 1, Irinotecan hydrochloride]
IC50 (SNU-668 [1]): 4300 nM
cell death (cell viability, FIG. 1) [2]: exhibited an effect of cell death
IC50 (AGS [3]): 367 nM
IC50 (SNU-484 [4]): 789 nM
IC50 (SNU-216): 2010 nM
IC50 (SNU-638 [5]): 657 nM

O=C1[O][Pt-2]2([NH2+]C3CCCC[C@H]3[NH2+]2)[O]C1=O (stereo partly drawn) [Comparative Example 2, Oxaliplatin]
IC50 (SNU-638 [6]): 30300 nM
IC50 (AGS [7]): 2380 nM
IC50 (SNU-484 [8]): 10400 nM
IC50 (SNU-668 [9]): 11200 nM
cell death (cell viability, FIG. 2) [10]: exhibited an effect of cell death

O=C(c1cc(Cc2n[nH]c(=O)c3ccccc23)ccc1F)N1CC(CNC2CC2)C1 [Comparative Example 4, 4-[3-(3-[(cyclopropylamino)methyl]azetidine-1-carbonyl)-4-fluorobenzyl]phthalazine-1 (2H)-on]
Tumor volume (Mean ± SEM) ([11]; 0 day (grouping date), MKN45 xenograft mice): 156.60 mm^3
Tumor volume (Mean ± SEM) ([11]; 3rd day, MKN45 xenograft mice): 190.75 mm^3
Tumor volume (Mean ± SEM) ([11]; 7th day, MKN45 xenograft mice): 272.69 mm^3
Tumor volume (Mean ± SEM) ([11]; 10th day, MKN45 xenograft mice): 359.75 mm^3
Tumor volume (Mean ± SEM) ([11]; 14th day, MKN45 xenograft mice): 461.91 mm^3
Tumor volume (Mean ± SEM) ([11]; 17th day, MKN45 xenograft mice): 588.26 mm^3
Tumor growth inhibition (TGI) ([11]; 21st day, Formula 1 HCl 2 mg/kg QD, irinotecan 5 mg/kg QW): 19.69%
Tumor size on 21st day (Mean ± SEM) ([11]; 21st day, MKN45 xenograft mice, Formula 1 HCl 2 mg/kg QD, irinotecan 5 mg/kg QW): 727.36 ± 69.46 mm^3
Tumor volume (Mean ± SEM) ([11]; 21st day, MKN45 xenograft mice): 727.36 mm^3
T/C ([11]; 21st day, treatment vs vehicle control tumor volume): 80.31%
